According to paper PMC8625559 (Pharmaceutics, 2021):

Legend:
[1] = Penetration kinetics across pig ear skin; format: in vitro ADME
Method: Before use, hairs were shaved from the pig ear skin using an electric razor, and the skin thickness was adjusted between 700 and 1200 µm. This size range was achieved by cutting the dermis below hair follicle. The integrity of the skin was tested according to the Trans-Epidermal Water Loss (TEWL) method using a Delfin device.
After topical application of the test chemical (infinite dose, 1.13 mL/cm^2), the concentration of the chemical in the receptor fluid was measured by sampling 200 µL of receptor fluid and replacing it with fresh fluid on an hourly basis, up to 16 h.
The kinetic samples were directly injected into an LC/MS-MS system (Shimadzu Nexera LC system, Shimadzu, Kyoto, Japan) coupled with a mass spectrometer API 3500 (Sciex, Framingham, MA, USA). The analytical system was managed by Analyst v.1.6 software (Sciex, Framingham, MA, USA). The analytical column used was a Kinetex C18 from Phenomenex™ (Torrance, CA, USA) (50 × 2.0 mm, dp. 2.6 µm), and analysis was carried out with a gradient elution with mobile phases of 20 mM ammonium acetate (A) and acetonitrile (B). The column temperature was fixed at 50 °C, and the volume of the injection was 10 µL with a flow rate of 0.8 mL/min. The ionisation mode used was electrospray negative.
The calculation was carried out using GraphPad PrismT v.7 (GraphPad Software Inc., San Diego, CA, USA).

[2] = Skin-PAMPA permeability of PER in different solvents; format: in vitro ADME
Method: Skin PAMPA™ sandwiches and stirring bars (P/N: 110211) were supplied by Pion Inc™. UV plates (UV-star microplate, clear, flat bottom, half area) were from Greiner Bio-one™ (Kremsmünster, Austria). Membranes were hydrated overnight with standard hydration solution (Pion Inc™., product number 120706). […] The acceptor (lower) plate contained 180 μL Prisma buffer pH 7.4 and a magnetic stirrer in each well. The PAMPA™ sandwich was incubated at 32 °C in a Gut-Box™ (from Pion Inc™). Stirring bars were applied in every well to avoid the effect of the unstirred water layer. The acceptor solution was sampled after 7.5, 15, 30, 60, 120, 240 and 360 min incubation. After each individual incubation period, 150 µL from the acceptor compartment was transferred to UV plates. The acceptor phase was replaced with fresh buffer solution.
The flux (J) was obtained as the slope of the permeability profile and expressed in µg/cm^2 × h units. For the linear regression analysis, the linear range of incubation period from 0 to 30 min was selected and used for calculation of flux of the model compound. Permeability coefficient Pm […] was calculated from the equation:Pm= J/CD(2) where CD is the donor phase concentration.

[3] = logP by shake-flask method, octanol/water; format: physicochemical; settings: 25.0 °C
Method: Two parallel experiments were carried out. Four different phase ratios of octanol:water (1:50, 1:75, 1:100, 1:125) were applied. The equilibration time was 1 h (Lauda M2OS, shaking thermostat Königshofen, Germany), and the phases were separated by centrifugation. The concentration decrease in the sample in the aqueous phase was detected by UV spectroscopy (Jasco V-550 UV/VIS spectrophotometer, Easton, MD, USA) measuring the absorbance before and after the partition at λmax = 280 nm. The logP value was calculated from the equation:(1) logP=log[A0−A1/A1(Vaq/Voct)] where A0 and A1 represent the absorbance value at the absorption maximum of the compound in the aqueous phase before and after partition.

[4] = Stability in buffer solutions (LC/MS-MS method validation); format: physicochemical; settings: spiked at 426 and 21.5 ng/mL
Method: The specificity of the analytical method was controlled with blank (NaCl, 9 g/L) solution (Merck, Darmstadt Germany). The limit of quantitation (LoQ) was 2.43 ng/mL. Linearity was determined between the LoQ and 1000 ng/mL, with accuracy below ±15%, except at the LoQ, which was below ± 20%. Accuracy and precision were determined at least at two quality control (QC) theoretical concentrations: low (around 20 ng/mL) and middle (around 300 ng/mL). All QCs remained within the acceptance criteria (accuracy < ±15%). Matrix effects and stability in buffer solutions and buffer supplemented with pig skin were evaluated at two concentrations (426 and 21.5 ng/mL) in triplicate by spiking buffer solutions containing known amounts of chemical. […] A matrix effect was observed; therefore, all calibrations for this chemical were carried out in the matrix.

[5] = set-up: method as in L'Oréal Laboratories; settings: AH/A−; ref L'Oréal Laboratories; cited from earlier work
[6] = Skin-PAMPA membrane integrity study with piroxicam as model permeant; format: in vitro ADME; settings: piroxicam from aqueous solution; membranes pre-treated 7 h with each of 13 solvents
Method: Possible disruption by solvents of the integrity of the biomimetic artificial membrane was investigated. Wells were filled with each solvent and incubated over a longer (minimum 7 h) incubation time than the duration of the tests with the model solutions. The solvents were aspirated from the wells, and the residue from the surface of the membrane was removed gently with cotton paper. A standard skin permeability assay was then performed using piroxicam as the model permeant, for which precise previous data are available. The logPm values were compared with the reference value from untreated plates.

[7] = set-up: method as in PMID 25957747; settings: aqueous solution, untreated Skin-PAMPA plates; cited from earlier work
[8] = PER in S4 Dimethylisosorbide, CD 60 mg/mL
[9] = PER in S5 Water/ethanol 80:20 (w/w), CD 8 mg/mL
[10] = PER in S6 Water/dimethylisosorbide 90:10 (w/w), CD 1 mg/mL
[11] = PER in S7 Propylene glycol, CD 350 mg/mL
[12] = PER in S8 Water:propylene glycol 80:20 (w/w), CD 51 mg/mL
[13] = PER in S10 Capric/caprylic triglycerides, CD 75 mg/mL
[14] = PER in S2 Ethanol, CD 500 mg/mL
[15] = PER in S4 Dimethylisosorbide, CD 70 mg/mL
[16] = PER in S5 Water/ethanol 80:20 (w/w), CD 10 mg/mL
[17] = PER in S7 Propylene glycol, CD 500 mg/mL
[18] = PER in S8 Water:propylene glycol 80:20 (w/w), CD 10 mg/mL
[19] = PER in S9 Water/propylenglycol/ethanol 10:30:60 (w/w/w), CD 500 mg/mL
[20] = PER in S10 Capric/caprylic triglycerides, CD 70 mg/mL
[21] = PER in S11 Octyl dodecanol, CD 1 mg/mL
[22] = PER in S12 Apricot kernel oil, CD 1 mg/mL
[23] = PER in S13 Corn oil, CD 1 mg/mL

For 4-phenylethyl-resorcinol [PER], the “J (flux)” value ([1]; PER in S1 Water, CD 1 mg/mL) was 25 ± 9.6 µg/cm^2 × h, the “Permeated Amount (16 h)” value ([1]; PER in S1 Water, CD 1 mg/mL) was 261 ± 100 µg/cm^2 and the logKp ([1]; PER in S1 Water, CD 1 mg/mL) was −1.71 ± 0.32. The “Permeated Amount (16 h)” value ([1]; PER in S2 Ethanol, CD […]) was 98 ± 67 µg/cm^2, the “J (flux)” value [1, 8] was 0.08 ± 0.024 µg/cm^2 × h and the logKp [1, 8] was −5.88 ± 0.19. For the same compound, the “J (flux)” value [1, 9] was 61 ± 18 µg/cm^2 × h, the “Permeated Amount (16 h)” value [1, 9] was 515 ± 203 µg/cm^2 and the logKp [1, 9] was −1.97 ± 0.34. The “J (flux)” value [1, 10] was 7.5 ± 3 µg/cm^2 × h, the “Permeated Amount (16 h)” value [1, 10] was 100 ± 37 µg/cm^2 and the logKp [1, 10] was −2.16 ± 0.26. For the same compound, the “J (flux)” value [1, 11] was 20 ± 17.6 µg/cm^2 × h, the “Permeated Amount (16 h)” value [1, 11] was 147 ± 120 µg/cm^2 and the logKp [1, 11] was −4.24 ± 0.81. The “J (flux)” value [1, 12] was 98 ± 50 µg/cm^2 × h, the “Permeated Amount (16 h)” value [1, 12] was 516 ± 109 µg/cm^2 and the logKp [1, 12] was −1.72 ± 0.34. The “Permeated Amount (16 h)” value ([1]; PER in S9 Water/propylenglycol/ethanol 10:30:60 (w/w/w), CD […]) was 320 ± 149 µg/cm^2, the “J (flux)” value [1, 13] was 8 ± 3.5 µg/cm^2 × h and the “Permeated Amount (16 h)” value [1, 13] was 54 ± 34 µg/cm^2. The logKp [1, 13] was −3.97 ± 0.29, the “J (flux)” value ([2]; PER in S1 Water, CD 1 mg/mL) was 72.4 ± 7.8 µg/cm^2 × h and the “Lag Time” value ([2]; PER in S1 Water, CD 1 mg/mL) was 1.4 min. The “Permeated Amount (6 h)” value ([2]; PER in S1 Water, CD 1 mg/mL) was 169 ± 4 µg/cm^2, the logPm ([2]; PER in S1 Water, CD 1 mg/mL) was −1.12 ± 0.06 and the “J (flux)” value [2, 14] was 12,033 ± 252 µg/cm^2 × h. The “Lag Time” value [2, 14] was 0.0 min, the “Permeated Amount (6 h)” value [2, 14] was 13,575 ± 1710 µg/cm^2 and the logPm [2, 14] was −1.62 ± 0.01. For the same compound, the “J (flux)” value ([2]; PER in S3 Glycerol, CD 5 mg/mL) was 137 ± 22 µg/cm^2 × h, the “Lag Time” value ([2]; PER in S3 Glycerol, CD 5 mg/mL) was 5.5 min and the “Permeated Amount (6 h)” value ([2]; PER in S3 Glycerol, CD 5 mg/mL) was 869 ± 112 µg/cm^2. For the same compound, the logPm ([2]; PER in S3 Glycerol, CD 5 mg/mL) was −1.57 ± 0.07, the “J (flux)” value [2, 15] was 209 ± 53 µg/cm^2 × h and the “Lag Time” value [2, 15] was 3.6 min. The “Permeated Amount (6 h)” value [2, 15] was 1342 ± 298 µg/cm^2, the logPm [2, 15] was −2.54 ± 0.13 and the “J (flux)” value [2, 16] was 589 ± 25 µg/cm^2 × h. For the same compound, the “Lag Time” value [2, 16] was 0.9 min, the “Permeated Amount (6 h)” value [2, 16] was 1662 ± 169 µg/cm^2 and the logPm [2, 16] was −1.23 ± 0.03. The “J (flux)” value [2, 10] was 76.4 ± 15.2 µg/cm^2 × h, the “Lag Time” value [2, 10] was 0.0 min and the “Permeated Amount (6 h)” value [2, 10] was 175 ± 22 µg/cm^2. For the same compound, the logPm [2, 10] was −1.13 ± 0.07, the “J (flux)” value [2, 17] was 2118 ± 502 µg/cm^2 × h and the “Lag Time” value [2, 17] was 3.8 min. For the same compound, the “Permeated Amount (6 h)” value [2, 17] was 11,142 ± 729 µg/cm^2, the logPm [2, 17] was −2.38 ± 0.11 and the “J (flux)” value [2, 18] was 570 ± 5 µg/cm^2 × h. For the same compound, the “Lag Time” value [2, 18] was 1.1 min, the “Permeated Amount (6 h)” value [2, 18] was 1772 ± 98 µg/cm^2 and the logPm [2, 18] was −1.24 ± 0.01. For the same compound, the “J (flux)” value [2, 19] was 10,846 ± 326 µg/cm^2 × h, the “Lag Time” value [2, 19] was 1.4 min and the “Permeated Amount (6 h)” value [2, 19] was 14,926 ± 2431 µg/cm^2. For the same compound, the logPm [2, 19] was −1.66 ± 0.01, the “J (flux)” value [2, 20] was 377 ± 36 µg/cm^2 × h and the “Lag Time” value [2, 20] was 3.0 min. The “Permeated Amount (6 h)” value [2, 20] was 749 ± 92 µg/cm^2, the “J (flux)” value [2, 21] was 7.18 ± 1.6 µg/cm^2 × h and the “Lag Time” value [2, 21] was 3.9 min. The “Permeated Amount (6 h)” value [2, 21] was 19 ± 0.4 µg/cm^2, the “J (flux)” value [2, 22] was 2.45 ± 0.57 µg/cm^2 × h and the “Lag Time” value [2, 22] was 3.3 min. For the same compound, the “Permeated Amount (6 h)” value [2, 22] was 13 ± 1.9 µg/cm^2, the logPm [2, 22] was −2.63 ± 0.07 and the “J (flux)” value [2, 23] was 3.26 ± 0.41 µg/cm^2 × h. For the same compound, the “Lag Time” value [2, 23] was 1.4 min, the “Permeated Amount (6 h)” value [2, 23] was 13 ± 1.3 µg/cm^2 and the logPm [2, 23] was −2.48 ± 0.06. For the same compound, the calculated lag times ([2]; span over all 13 solvents) was 0 to 6 min, the logP [3] was 2.98 ^1 and the “stability in buffer solutions spiked with PER” value [4] was 98.3 ± 7.0%. For the same compound, the pKa [5] was 9.77–10.77 (AH/A^−) ^2.

For `CN1C(C(=O)Nc2ccccn2)=C(O)c2ccccc2S1(=O)=O` [piroxicam], the “logPm of piroxicam, mean across solvent-treated membranes” value [6] is given as −4.25 ± 0.30 and the “reference logPm of piroxicam” value [7] is given as −4.98 ± 0.01.
